The nature of data set [1]: Phase 2 study of exemestane with and without entinostat: safety and tolerability (adverse events). The data set is classed as in vivo, human. The procedure:
(§1) Secondary Outcome Measures are to compare objective response rate (ORR) and clinical benefit rate (CBR), and to evaluate the safety and tolerability of entinostat in combination with exemestane as measured by adverse events and laboratory safety parameters.
Safety was assessed by adverse events (AEs), using the National Cancer Institute Common Terminology Criteria for Adverse Events, version 3.0, electrocardiograms, hematology and serum chemistries, ECOG performance status, and vital signs.
Safety was assessed by an independent Data Safety Monitoring Board. All participating investigators and patients remain blinded to the assigned study treatment, as post-treatment follow-up for OS is continuing.

Data set [2] relates to locally recurrent or metastatic estrogen receptor-positive breast cancer. Description: Phase 2 randomized, double-blind study of exemestane with and without entinostat (ENCORE-301): efficacy. It counts as in vivo, human. As to conditions: for median progression-free survival (PFS) / overall survival: intent-to-treat population; for overall survival: median follow-up of 18 months.
Source text: as §1
The primary endpoint of the study was progression-free survival. Other endpoints included objective response rate (ORR), clinical benefit rate (CBR), overall survival (OS) and safety and tolerability. All patients had received prior hormonal therapy (1 prior line 42%; >1 prior line 58%), and 33% had received prior chemotherapy in the advanced breast cancer setting.
One hundred thirty (130) patients were enrolled between June 2008 and July 2010 at 38 sites in North America, Central Europe, and Russia. All patients provided written informed consent. […] Randomization was stratified by 1) prior NSAI treatment setting (adjuvant/metastatic); 2) metastases in bone only (yes/no); and 3) geographic region (North America/Central Europe and Russia). The randomization schedule was prepared and maintained by an independent statistical service provider. The protocol allowed for enrollment of approximately 20% of patients with non-measurable disease.
Postmenopausal women with ER+BC currently experiencing disease relapse or progression while receiving a NSAI were eligible. Patients either had 1) relapsed after adjuvant NSAI treatment administered for at least 12 months or 2) progressed after NSAI treatment administered for at least 3 months in the metastatic/advanced setting. One prior line of chemotherapy in the metastatic setting was permitted if given before the most recent NSAI. Within 4 weeks prior to starting study treatment, patients must have had at least 1 measurable lesion (≥20 mm by conventional techniques or ≥10 mm by spiral computed tomography [CT] scan), or with bone only metastases, a positive bone scan confirmed by magnetic resonance imaging (MRI) or positron emission tomography (PET)-CT. Additional requirements included, an Eastern Cooperative Oncology Group (ECOG) performance status of 0 or 1; adequate hematologic parameters; and creatinine, aspartate transaminase, and alanine transaminase <2.5 times the upper limit of normal. Patients with prior fulvestrant, exemestane, entinostat, or any other HDACi were excluded.
Treatment cycles were 28 days in length. Patients were evaluated on Day (D) 1, D8, and D15 during Cycle (C) 1 and on D1 of all subsequent cycles. Peripheral blood samples were taken in a subset of patients pre- and post-dosing on D1, 8, or 15 of C1. Patient/disease response assessments were performed on D22 of C2 and every other cycle thereafter. After completing study treatment, patients entered into post-treatment follow-up for evaluation of overall survival and subsequent therapies. Patients were to be followed until death, withdrawal of consent, or study closure by the sponsor.
Disease was evaluated using the Response Evaluation Criteria in Solid Tumors (RECIST), version 1.0. Contrast-enhanced CT scans were obtained at baseline, every other cycle for 12 months, and every third cycle thereafter. PD also was assessed by bone scan and clinical symptoms, as appropriate.
The primary endpoint was PFS, defined as the number of months from randomization to documented PD or death due to any cause. Secondary endpoints included overall response (OR; complete response [CR]+partial response [PR]) and clinical benefit rates (CBR; OR+stable disease [SD] for ≥6 months). Overall Survival (OS) was an exploratory endpoint.
PFS was summarized descriptively using the Kaplan-Meier method and reported based on 116 progression events as of March 2012. The HR was estimated from a stratified Cox proportional hazards model, with placebo serving as the reference in the calculation. The primary inferential comparison between groups was made using the log-rank test, stratified by the 3 randomization factors. For patients who died before documentation of PD, death date was used as the PD date. […]

The test system is the same in data set [3]. Description: PFS by change in protein lysine acetylation in PBMCs (biomarker subset of the Phase 2 study). The data set is classed as in vivo, human. As for the experimental part: The primary endpoint was progression-free survival (PFS).
Protein lysine acetylation was measured by multi-parameter flow cytometry in peripheral blood mononuclear cells (PBMCs; CD19+ B cells, CD3+ T cells, and CD14+ monocytes) collected pre and post-treatment on D1, D8, and D15 of C1 to explore the association with PFS.
The association of PFS with degree of change in protein lysine acetylation from baseline in PBMCs was evaluated as an exploratory, post-hoc analysis in a subset of patients using the Cox proportional hazard model. Analyses in all 3 cell types (B cells, T cells, monocytes) was performed for consistency of results and to aid in selection of optimal cell type for analysis in future studies.
Baseline characteristics were consistent with the overall study population (FIG. 17). Hyperacetylation in EE patients was associated with a prolonged median PFS consistent across all cell types tested (FIG. 18): 8.5 versus 2.7 months for low acetylators (HR=0.32, 95% CI 0.13, 0.79) (B cells); 6.6 versus 3.6 months for low acetylators (HR=0.44, 95% CI 0.18, 1.08) (T cells); and 6.2 versus 3.6 months for low acetylators (HR=0.50, 95% CI 0.21, 1.20) (monocytes). […] The percent change in acetylation from baseline was determined based upon the last sample obtained. The degree of change in acetylation was then dichotomized into “high” (i.e., above the median or “hyperacetylators”) and “low” (i.e., below the median) subgroups using a non-model based approach: patients with a change from baseline that was greater than or equal to the 50th percentile (median) of the overall distribution were assigned to the “high” group; patients with a change less than the 50th percentile were assigned to the “low” group. The cut-point for the analysis (50th percentile) was determined a priori, but was not based on findings from earlier studies.
Percent change is calculated and related to progression free survival (PFS) outcome data. Hyperacetylation independent of treatment arm is defined as a percent change increase above the calculated median percent change for each cell type.

Data set [4] relates to advanced BC demonstrating PD or recurrence following a NSAI. As to conditions: reported by Chia, et al; cited from earlier work.
The conditions of data set [5]: in vivo; cited from earlier work.
The nature of data set [6]: Plasma entinostat concentration at acetylation sampling time points. The data set is classed as in vivo, human. As to conditions: D8 and D15 time points used for acetylation evaluation; generally at or below the assay detection limit.
Where [7] appears, read: listed as exemestane plus placebo.

Where “and” joins values, the source holds several entries; their conditions need not be identical. Equal entries are not always repeated.

Regarding `C=C1C[C@@H]2[C@H](CC[C@]3(C)C(=O)CC[C@@H]23)[C@@]2(C)C=CC(=O)C=C12` [EP, exemestane], in data set [1] (Example 1a), the “serious AE rate” value worked out at 12%. Further, the “incidence of serious AEs” value in data set [1] (Example 1c, Safety Population) is given as 12%. Moreover, the “AEs leading to dose modification” value in data set [1] (Safety Population) amounted to 6%. Further, the “AEs leading to study discontinuation” value in data set [1] (Safety Population) was determined as 2%. In addition, the “G4 AEs” value in data set [1] (Safety Population) came out at 3%. In addition, the “Grade (G) 3 AEs” value in data set [1] (Safety Population) is 23%. For the same compound, the “rate of AEs” value in data set [1] (Safety Population, irrespective of study drug relationship) is on record as 85%. In addition, the median overall survival in data set [2] (23-month follow-up) came to 19.8 months. Moreover, the incidence of death in data set [2] (Example 1c analysis) was found to be 65%. The “median OS” value in data set [2] (Example 1c analysis, ITT population) worked out at 19.8 months. Besides, in data set [2] (ITT population), the “clinical benefit rate (CBR; OR+SD for >=6 months)” value amounted to 25.8%. For the same compound, in data set [2] (ITT population, RECIST 1.0), the “overall response (OR; CR+PR)” value was 4.6%. Also, the “median progression-free survival (PFS)” value in data set [2] is 2.3 months and 2.27 months; in data set [2] (listed as exemestane alone) it was 2.3 months; in data set [2] (setting [7]) it was 2.27 months and 2.3 months; in data set [2] (listed as exemestane+placebo), 2.3 months. Further, the overall survival in data set [2] amounted to 20.3 months; in data set [2] (setting [7]) it was 20.33 months. Also, the “median PFS, high acetylators (hyperacetylation)” value was 1.9 months and 1.92 months in data set [3] (B cells); 1.77 months in data set [3] (T cells); 1.87 months in data set [3] (monocytes). The “median PFS, low acetylators” value in data set [3] (B cells) was determined as 1.8 months. For the same compound, the “median PFS” value in data set [4] is reported as 3.7 months.

For `Nc1ccccc1NC(=O)c1ccc(CNC(=O)OCc2cccnc2)cc1` [entinostat, N-(2-aminophenyl)-4-[N-(pyridine-3-yl)methoxycarbonylamino-methyl]-benzamide], the “neutropenia cases attributed to entinostat” value in data set [1] (EE group, 13 of 19 cases) came to 68%. For the same compound, the “tolerability / safety profile” value in data set [1] (Phase 2 clinical trial) is “acceptable safety profile”. Also, the half-life entry in data set [5] is “about 100 hours”. In addition, the plasma entinostat concentration in data set [6] is reported as under 0.5 ng/mL.

Values taken from patent US10226472B2, “Methods for the treatment of breast cancer” (SYNDAX PHARMACEUTICALS, INC., priority 2011, dated 2019).
